Measurements reported in patent publication US20120083522A1, “MODULATION OF INFLAMMATORY RESPONSES BY FACTOR XI” (Isis Pharmaceuitcals, inc., priority 2009, published 2012).
In the oligonucleotide strings, read from the 5' end, every base follows the letter of its sugar. An asterisk marks phosphorothioate; unmarked linkages are phosphodiester. Other units and linkages are bracketed, terminal groups are in braces. A string of capitals states the bases alone. e = 2'-O-(2-methoxyethyl) (MOE); [5mC] = 5-methylcytosine; d = 2'-deoxy (DNA)

What was measured:
human Factor XI mRNA = experiment: Dose-dependent inhibition and IC50 in HepG2 cells, microwalk gapmers, electroporation (Example 16); assay type: cell-based
Procedure: These gapmers were tested at various doses in HepG2 cells. Cells were plated at a density of 20,000 cells per well and transfected using electroporation with 375 nM, 750 nM, 1,500 nM, 3,000 nM, 6,000 nM and 12,000 nM concentrations of antisense oligonucleotide, as specified in Table 54. After a treatment period of approximately 16 hours, RNA was isolated from the cells and Factor XI mRNA levels were measured by quantitative real-time PCR. Human Factor XI primer probe set RTS 2966 was used to measure mRNA levels. Factor XI mRNA levels were adjusted according to total RNA content, as measured by RIBOGREEN. Results are presented as percent inhibition of Factor XI, relative to untreated control cells.
ISIS 416850, ISIS 416858, ISIS 445522, and ISIS 445531 (see Table 52 above) were re-tested in vitro along with the microwalk gapmers under the same conditions described above.
The chimeric antisense oligonucleotides in Table 53 were designed as 3-8-3 MOE, 4-8-4 MOE, 2-10-2 MOE, 3-10-3 MOE, or 4-10-4 MOE gapmers. The 3-8-3 gapmer is 14 nucleotides in length, wherein the central gap segment is comprised of eight 2′-deoxynucleotides and is flanked on both sides (in the 5′ and 3′ directions) by wings comprising three nucleotides each. The 4-8-4 gapmer is 16 nucleotides in length, wherein the central gap segment is comprised of eight 2′-deoxynucleotides and is flanked on both sides (in the 5′ and 3′ directions) by wings comprising four nucleotides each. The 2-10-2 gapmer is 14 nucleotides in length, wherein the central gap segment is comprised of ten 2′-deoxynucleotides and is flanked on both sides (in the 5′ and 3′ directions) by wings comprising two nucleotides each. The 3-10-3 gapmer is 16 nucleotides in length, wherein the central gap segment is comprised of ten 2′-deoxynucleotides and is flanked on both sides (in the 5′ and 3′ directions) by wings comprising three nucleotides each. The 4-10-4 gapmer is 18 nucleotides in length, wherein the central gap segment is comprised of ten 2′-deoxynucleotides and is flanked on both sides (in the 5′ and 3′ directions) by wings comprising four nucleotides each. For each of the motifs (3-8-3, 4-8-4, 2-10-2, 3-10-3, and 4-10-4), each nucleotide in the 5′ wing segment and each nucleotide in the 3′ wing segment has a 2′-MOE modification. The internucleoside linkages throughout each gapmer are phosphorothioate (P═S) linkages. All cytidine residues throughout each gapmer are 5-methylcytidines. “Human Target start site” indicates the 5′-most nucleotide to which the gapmer is targeted in the human sequence. “Human Target stop site” indicates the 3′-most nucleotide to which the gapmer is targeted in the human sequence. Each gapmer listed in Table 53 is targeted to SEQ ID NO: 1 (GENBANK Accession No. NM_000128.3). Each gapmer is Table 53 is also fully cross-reactive with the rhesus monkey Factor XI gene sequence, designated herein as SEQ ID NO: 274 (exons 1-15 GENBANK Accession No. NW—001118167.1). ‘Rhesus monkey start site’ indicates the 5′-most nucleotide to which the gapmer is targeted in the rhesus monkey sequence. ‘Rhesus monkey stop site’ indicates the 3′-most nucleotide to which the gapmer is targeted to the rhesus monkey sequence.
The first two listed gapmers in Table 54 are the original gapmers (ISIS 416850 and ISIS 416858) from which the remaining gapmers were designed via microwalk and are designated by an asterisk.

Factor XI mRNA = experiment: Cynomolgus monkeys, 25 mg/kg: liver Factor XI RNA analysis (Example 30); assay type: in vivo; details: for % inhibition of Factor XI mRNA in liver relative to the PBS control: 25 mg/kg s.c., day 55; for Factor XI mRNA in liver (in words): cynomolgus monkeys, day 55, in comparison to the PBS control
Procedure: (§1) Groups, each consisting of two male and two female monkeys, were injected subcutaneously with 25 mg/kg of ISIS 416850, ISIS 449709, ISIS 445522, ISIS 449710, ISIS 449707, ISIS 449711, ISIS 449708, 416858 and ISIS 445531. Antisense oligonucleotide was administered to the monkeys at 25 mg/kg three times per week for week 1 and 25 mg/kg twice per week for weeks 2 to 8. A control group, consisting of two male and two female monkeys was injected subcutaneously with PBS according to the same dosing regimen. Body weights were taken 14 days and 7 days before the start of treatment and were then measured weekly throughout the treatment period. Blood samples were collected 14 days and 5 days before the start of treatment and subsequently several times during the dosing regimen for measurement of various hematologic factors. On day 55, the monkeys were euthanized by exsanguination while under deep anesthesia, and organs harvested for further analysis.
On day 55, RNA was extracted from liver tissue for real-time PCR analysis of Factor XI using primer probe set LTS00301. Results are presented as percent inhibition of Factor XI, relative to PBS control.

Factor XI protein = experiment: Cynomolgus monkeys: plasma Factor XI protein ELISA (Example 30); assay type: in vivo; details: 25 mg/kg s.c., plasma ELISA
Procedure: as §1
Plasma samples from all monkey groups taken on different days were analyzed by a sandwich-style ELISA assay (Affinity Biologicals Inc.) using an affinity-purified polyclonal anti-Factor XI antibody as the capture antibody and a peroxidase-conjugated polyclonal anti-Factor XI antibody as the detecting antibody. Monkey plasma was diluted 1:50 for the assay. Peroxidase activity was expressed by incubation with the substrate o-phenylenediamine. The color produced was quantified using a microplate reader at 490 nm and was considered to be proportional to the concentration of Factor XI in the samples.
The results are presented in Table 148, expressed as percentage reduction relative to that of the PBS control.

[1] = tested on: IL-1β, IL-6, IFN-γ, TNF-α, IL-8, MIP-1α, MCP-1, MIP-10, RANTES; experiment: Cynomolgus monkeys: cytokine and chemokine assays (Example 30); assay type: in vivo
Procedure: as §1
Blood samples obtained from all monkey groups were sent to Pierce Biotechnology (Woburn, Mass.) for measurements of chemokine and cytokine levels. Levels of IL-1β, IL-6, IFN-γ, and TNF-α were measured using the respective primate antibodies and levels of IL-8, MIP-1α, MCP-1, MIP-10 and RANTES were measured using the respective cross-reacting human antibodies. Measurements were taken 14 days before the start of treatment and on day 55, when the monkeys were euthanized.

[2] = day −14 (before start of treatment)

Substance	percent inhibition of Factor XI mRNA (human Factor XI mRNA; electroporation, 375 nM) [%]	percent inhibition of Factor XI mRNA (human Factor XI mRNA; electroporation, 750 nM) [%]	percent inhibition of Factor XI mRNA (human Factor XI mRNA; electroporation, 1,500 nM) [%]	percent inhibition of Factor XI mRNA (human Factor XI mRNA; electroporation, 3,000 nM) [%]	percent inhibition of Factor XI mRNA (human Factor XI mRNA; electroporation, 6,000 nM) [%]	percent inhibition of Factor XI mRNA (human Factor XI mRNA; electroporation, 12,000 nM) [%]	% inhibition of Factor XI mRNA in liver relative to the PBS control (Factor XI mRNA) [%]	Inhibition of Factor XI protein relative to the PBS control (Factor XI protein; Day 10) [%]	Inhibition of Factor XI protein relative to the PBS control (Factor XI protein; Day 17) [%]	Inhibition of Factor XI protein relative to the PBS control (Factor XI protein; Day 24) [%]	Inhibition of Factor XI protein relative to the PBS control (Factor XI protein; Day 31) [%]	Inhibition of Factor XI protein relative to the PBS control (Factor XI protein; Day 38) [%]	Inhibition of Factor XI protein relative to the PBS control (Factor XI protein; Day 45) [%]	Inhibition of Factor XI protein relative to the PBS control (Factor XI protein; Day 52) [%]	Inhibition of Factor XI protein relative to the PBS control (Factor XI protein; Day 55) [%]	Inhibition of Factor XI protein relative to the PBS control (Factor XI protein; Day −5) [%]	Inhibition of Factor XI protein relative to the PBS control (Factor XI protein; Day −14) [%]	other results
449707 (antisense e[5mC]*eA*e[5mC]*eA*dG*dT*dT*dT*d[5mC]*dT*dG*dG*e[5mC]*eA*eG*eG) [compound 449707]	7	35	63	73	85	91	47	16	19	21	29	28	35	29	32	0	0	
449708 (antisense eA*e[5mC]*eA*dG*dT*dT*dT*d[5mC]*dT*dG*dG*e[5mC]*eA*eG) [compound 449708]	0	0	22	33	61	85	46	7	15	3	14	9	2	6	6	0	1	
449709 (antisense eG*e[5mC]*eA*e[5mC]*dA*dG*dT*dT*dT*d[5mC]*dT*dG*dG*d[5mC]*eA*eG*eG*e[5mC]) [compound 449709]	52	71	80	87	92	95	69	27	35	44	45	46	48	47	50	0	1	
449710 (antisense e[5mC]*eA*e[5mC]*dA*dG*dT*dT*dT*d[5mC]*dT*dG*dG*d[5mC]*eA*eG*eG) [compound 449710]	2	21	52	70	82	87	52	10	14	17	25	20	23	4	24	0	1	
449711 (antisense eA*e[5mC]*dA*dG*dT*dT*dT*d[5mC]*dT*dG*dG*d[5mC]*eA*eG) [compound 449711]	6	14	1	7	32	52	0	5	3	6	9	2	4	3	5	1	0	
ISIS 449707: microwalk gapmer of Table 53 (antisense e[5mC]*eA*e[5mC]*eA*dG*dT*dT*dT*d[5mC]*dT*dG*dG*e[5mC]*eA*eG*eG)																		Factor XI mRNA in liver (in words) (Factor XI mRNA): significant reduction of Factor XI mRNA; IL-1β level ([1]; 25 mg/kg s.c., day 55): 97 pg/mL; MIP-1β level ([1]; 25 mg/kg s.c., day 55): 49 pg/mL; IL-1β level [1, 2]: 115 pg/mL; MIP-1β level [1, 2]: 13 pg/mL
ISIS 449708: microwalk gapmer of Table 53 (antisense eA*e[5mC]*eA*dG*dT*dT*dT*d[5mC]*dT*dG*dG*e[5mC]*eA*eG)																		Factor XI mRNA in liver (in words) (Factor XI mRNA): significant reduction of Factor XI mRNA; IL-1β level ([1]; 25 mg/kg s.c., day 55): 131 pg/mL; MIP-1β level ([1]; 25 mg/kg s.c., day 55): 128 pg/mL; IL-1β level [1, 2]: 35 pg/mL; MIP-1β level [1, 2]: 19 pg/mL
